How the values were obtained:
[1] = target: T1, thymidylate synthetase (Lacticaseibacillus casei, UniProt P00469); conditions: read-out: Ki for the inhibition of thymidylate synthetase; cited from earlier work
[2] = system: radiation induced fibrosarcoma, RIF-1; conditions: toxic doses of CldC; cited from earlier work
[3] = target: T1, thymidylate synthetase; conditions: cited from earlier work
[4] = Half life of CldC with H4U in mice; assay type: in vivo; conditions: effect of H4U
Text: (§1) Furthermore, CldC plus H4U was not toxic to dogs or monkeys. In monkeys and mice, H4U increased the half life of CldC. This is a very important indicator of the efficacy of CldC plus H4U in the treatment of diseases, in particular tumors in humans.

[5] = Half life of CldC with H4U in monkeys; assay type: in vivo; conditions: effect of H4U
Text: as §1

T1 sequence (P00469 whole entry): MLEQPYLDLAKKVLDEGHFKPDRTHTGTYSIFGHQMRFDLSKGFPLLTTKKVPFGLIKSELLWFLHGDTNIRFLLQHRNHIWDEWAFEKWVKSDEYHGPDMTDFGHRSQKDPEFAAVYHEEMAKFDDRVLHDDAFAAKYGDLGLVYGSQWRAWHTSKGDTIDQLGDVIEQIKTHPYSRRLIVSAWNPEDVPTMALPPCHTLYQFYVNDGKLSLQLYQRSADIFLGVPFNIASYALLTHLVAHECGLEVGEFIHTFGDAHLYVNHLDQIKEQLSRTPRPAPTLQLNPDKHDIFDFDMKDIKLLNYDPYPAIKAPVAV

SMILES	Ki [1]	also measured
O=c1[nH]c(=O)n([C@H]2C[C@H](O)[C@@H](COP(=O)(O)O)O2)cc1Br [BrdUMP]	1400 nM	–
Nc1nc(=O)n([C@H]2C[C@H](O)[C@@H](CO)O2)cc1Cl [CldC, 5-chloro-2′-deoxycytidine]	–	dose enhancement ratio [2]: 1.6
O=c1[nH]c(=O)n([C@H]2C[C@H](O)[C@@H](COP(=O)(O)O)O2)cc1Cl [CldUMP]	190 nM	dehalogenation by thymidylate synthetase [3]: not dehalogenated
O=c1[nH]c(=O)n([C@H]2C[C@H](O)[C@@H](COP(=O)(O)O)O2)cc1F [FdUMP]	15 nM	–
O=C1NC(O)CCN1[C@@H]1O[C@H](CO)[C@@H](O)[C@H]1O (some centres unmarked) [H4U, tetrahydrouridine]	–	half life of CldC [4]: increased; half life of CldC [5]: increased
O=c1[nH]c(=O)n([C@H]2C[C@H](O)[C@@H](COP(=O)(O)O)O2)cc1I [IdUMP]	1600 nM	–
